Assay results published in PMC10360169 (Frontiers in Immunology, 2023).

System: Acar3
Assay type: binding, great reed warbler Acrocephalus arundinaceus
Conditions: for Stability T½ (h), peptide - Acar3: Table S5, half-life estimated from dissociation in scintillation proximity assay; for Stability T½ of Acar3 in complex with the peptide: Table S1, top 94 PSCPL-scoring peptides, SPA, 10µM peptide, 125I β2m, folding over night at 18°C, dissociation measured up to 24 hours at 37°C

| Sequence | Stability T½ (h), peptide - Acar3 | Stability T½ of Acar3 in complex with the peptide |
| --- | --- | --- |
| AANMYIYPL [9-mer peptide] | 0.1 h |  |
| AEMRETHWL [9-mer peptide] | 5.0 h | 300 min |
| AKIEAPLLL [9-mer peptide] | 2.5 h | 150 min |
| AMAAGLSSL [9-mer peptide] | 0.3 h | 18 min |
| AMMWRIAQL [9-mer peptide] | 0.3 h | 18 min |
| AMPKTIYEL [9-mer peptide] | 3.8 h | 228 min |
| AVMFFPFWF [9-mer peptide] | 0.6 h | 36 min |
| ETMKPAAMV [9-mer peptide] | 2.7 h | 162 min |
| FHMSKPSDL [9-mer peptide] | 0.8 h | 48 min |
| FLDKGTYTL [9-mer peptide] | 0.3 h | 18 min |
| FLLENAAYL [9-mer peptide] | 1.2 h | 72 min |
| FLQGAKWYL [9-mer peptide] | 0.1 h |  |
| FMFDYIPPV [9-mer peptide] | 0.2 h |  |
| FMIVNNFPV [9-mer peptide] | 0.3 h | 18 min |
| FQANMFLTL [9-mer peptide] | 1.2 h | 72 min |
| FQMGGIGPM [9-mer peptide] | 0.7 h | 42 min |
| FRMLAWHVL [9-mer peptide] | 0.3 h | 18 min |
| GAMYALANF [9-mer peptide] | 0.6 h | 36 min |
| GLAATSFPL [9-mer peptide] | 1.5 h | 90 min |
| GMNVTAPAL [9-mer peptide] | 0.3 h | 18 min |
| GMVGAEFSL [9-mer peptide] | 7.6 h | 456 min |

| Sequence | Stability T½ (h), peptide - Acar3 | Stability T½ of Acar3 in complex with the peptide |
| --- | --- | --- |
| GRLVTVNPF [9-mer peptide] | 0.5 h | 30 min |
| HELSLFWPL [9-mer peptide] | 1.1 h | 66 min |
| ILMEHIHKL [9-mer peptide] | 0.2 h | 12 min |
| IMDASSFTL [9-mer peptide] | 1.4 h | 84 min |
| KAMRPWQSF [9-mer peptide] | 0.4 h | 24 min |
| KAMSTPFSL [9-mer peptide] | 5.3 h | 318 min |
| KIMQVDRPM [9-mer peptide] | 2.6 h | 156 min |
| KLMDVVYSI [9-mer peptide] | 0.4 h | 24 min |
| KMAAFPETL [9-mer peptide] | 0.4 h | 24 min |
| KMNAKAATL [9-mer peptide] | 2.1 h | 126 min |
| KQLELFWVI [9-mer peptide] | 0.2 h |  |
| KQLESVMYL [9-mer peptide] | 1.3 h | 78 min |
| KQLEYSWVL [9-mer peptide] | 0.1 h |  |
| KQMSQPYAV [9-mer peptide] | 4.0 h | 240 min |
| KTAAAAAAF [9-mer peptide] | 0.4 h | 24 min |
| KTMMQAHDL [9-mer peptide] | 9.9 h | 594 min |
| LDMNVVKEL [9-mer peptide] | 0.6 h | 36 min |
| LMDENTYAM [9-mer peptide] | 0.4 h | 24 min |
| LMMNGTSAM [9-mer peptide] | 0.8 h | 48 min |
| LPLPAQQPF [9-mer peptide] | 0.3 h | 18 min |
| LPRWPPPQL [9-mer peptide] | 0.3 h | 18 min |

| Sequence | Stability T½ (h), peptide - Acar3 | Stability T½ of Acar3 in complex with the peptide |
| --- | --- | --- |
| LQMLGENVL [9-mer peptide] | 2.6 h | 156 min |
| LRWLAKSFF [9-mer peptide] | 0.5 h | 30 min |
| LTMNLVSDI [9-mer peptide] | 4.5 h | 270 min |
| MMMPMFNAF [9-mer peptide] | 7.2 h | 432 min |
| MMMSTAVAF [9-mer peptide] | 7.3 h | 438 min |
| MMWATAQAL [9-mer peptide] | 0.8 h | 48 min |
| MPMSMPIPM [9-mer peptide] | 3.2 h | 192 min |
| MTYKAAFDL [9-mer peptide] | 1.8 h | 108 min |
| QAYAAPQLF [9-mer peptide] | 1.5 h | 90 min |
| QMSWLPLCV [9-mer peptide] | 0.6 h | 36 min |
| QQMFPGAPF [9-mer peptide] | 0.4 h | 24 min |
| QWALLPYLF [9-mer peptide] | 9.9 h | 594 min |
| RATQPAAEF [9-mer peptide] | 1.6 h | 96 min |
| REMINHYQV [9-mer peptide] | 0.7 h | 42 min |
| REWSGLNYL [9-mer peptide] | 1.9 h | 114 min |
| RMAMIPRTL [9-mer peptide] | 0.5 h | 30 min |
| RMMATKDSF [9-mer peptide] | 0.4 h | 24 min |
| RMMGKTNPL [9-mer peptide] | 0.2 h |  |
| RQIRMTSTI [9-mer peptide] | 0.1 h |  |
